Test results published in ChEMBL document CHEMBL1201862, “PubChem BioAssay data set” (2004).
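Step 1: Grow cells in 96-well plates. Step 2: Expose to compound for 48 hours at 5 concentrations. Step 3: Interpolate endpoints linearly; if unreached, use highest concentration. GI50 = concentration required for 50% inhibition of growth.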 The source made the active and inactive calls. Rule as the data show it: active = GI50 up to about 1.1 µM and inactive = higher.

Tests used:
Experiment in all cases: DTP human tumour cell line panel, 48 h
[1] = tested on: SK-MEL-2
[2] = tested on: UACC-62
[3] = tested on: OVCAR-5
[4] = tested on: OVCAR-4
[5] = tested on: IGROV-1
[6] = tested on: RXF 393
[7] = tested on: HCT-116
[8] = tested on: SK-MEL-28
[9] = tested on: SW-620
[10] = tested on: U-251
[11] = tested on: SNB-19
[12] = tested on: M14
[13] = tested on: A498
[14] = tested on: HT-29
[15] = tested on: MOLT-4
[16] = tested on: TK-10
[17] = tested on: SNB-75
[18] = tested on: SK-MEL-5
[19] = tested on: HOP-92

Measured: GI50

O=C(Nc1ccc2oc(=O)c(C(=O)O)cc2c1)Oc1ccccc1
inactive: [1] > 100 µM | [2] > 100 µM | [3] > 100 µM | [4] > 100 µM | [5] > 100 µM | [6] > 100 µM | [7] > 100 µM | [8] > 100 µM | [9] > 100 µM | [10] > 100 µM | [11] > 100 µM | [12] > 100 µM | [13] > 100 µM | [14] > 100 µM | [15] > 100 µM | [16] > 100 µM | [17] > 100 µM | [18] > 100 µM | [19] > 100 µM

CCCn1c(SCC)c2ccccc2c1-c1nc(F)nc(F)n1
inactive: [1] > 100 µM | [3] > 100 µM | [4] > 100 µM | [6] > 100 µM | [7] > 100 µM | [8] > 100 µM | [9] > 100 µM | [10] > 100 µM | [11] > 100 µM | [12] > 100 µM | [13] > 100 µM | [14] > 100 µM | [15] > 100 µM | [16] > 100 µM | [19] > 100 µM

Cn1cccc1/C=C/c1cc(Br)c(/C=C/c2cccn2C)cc1Br
inactive: [1] 14.6 µM | [2] 13.8 µM | [3] 16.8 µM | [4] 5.4 µM | [5] 15.8 µM | [6] 12.6 µM | [7] 16.3 µM | [8] 15.5 µM | [9] 20.9 µM | [10] 13 µM | [11] 24.2 µM | [12] 19 µM | [13] 21 µM | [14] 18.6 µM | [15] 11.6 µM | [16] 22.5 µM | [17] 3.13 µM | [18] 15.2 µM | [19] 11.7 µM

NNC(=O)/C(=C/c1cccc([N+](=O)[O-])c1)NC(=O)c1ccccc1
inactive: [1] > 100 µM | [3] 77.3 µM | [4] > 100 µM | [5] > 100 µM | [6] > 100 µM | [7] > 100 µM | [8] > 100 µM | [9] > 100 µM | [10] > 100 µM | [11] > 100 µM | [12] > 100 µM | [13] > 100 µM | [14] > 100 µM | [15] > 100 µM | [16] > 100 µM | [17] > 100 µM | [18] > 100 µM | [19] > 100 µM

C/C(CC(=O)Nc1ccc(C)cc1)=N\NC(N)=S
inactive: [1] > 100 µM | [2] > 100 µM | [3] > 100 µM | [5] > 100 µM | [6] > 100 µM | [7] > 100 µM | [8] > 100 µM | [9] > 100 µM | [10] > 100 µM | [12] 66.7 µM | [13] > 100 µM | [14] > 100 µM | [15] > 100 µM | [16] > 100 µM | [17] > 100 µM | [18] > 100 µM | [19] > 100 µM

COC1C=CC(C(=O)[N+]2=Cc3[nH]c4ccccc4c3CC2)O1 (stereo not given)
inactive: [1] > 100 µM | [2] > 100 µM | [3] > 100 µM | [4] > 100 µM | [5] > 100 µM | [6] 61.5 µM | [7] > 100 µM | [8] > 100 µM | [9] > 100 µM | [10] 37.9 µM | [11] > 100 µM | [12] > 100 µM | [13] > 100 µM | [14] > 100 µM | [15] 34.9 µM | [16] > 100 µM | [17] 75.3 µM | [18] > 100 µM | [19] > 100 µM

N/C(=N\O)N/N=C/c1cccc(F)c1
inactive: [1] 67.8 µM | [2] 16.8 µM | [3] 33.7 µM | [4] 85.9 µM | [5] 47.9 µM | [6] 24.8 µM | [7] 41.6 µM | [8] > 100 µM | [9] 75.2 µM | [10] 36.1 µM | [11] > 100 µM | [12] 21.2 µM | [13] 40 µM | [14] 30.4 µM | [15] 43.5 µM | [16] 66.5 µM | [17] 52.6 µM | [18] 14.8 µM | [19] 42.9 µM

CC(=O)OCCOCn1c2ccccc2c2c3c(c4c5ccccc5n(COCCOC(C)=O)c4c21)C(=O)N(Cc1ccccc1)C3=O
inactive: [1] > 100 µM | [2] > 100 µM | [3] > 100 µM | [4] > 100 µM | [5] > 100 µM | [6] > 100 µM | [7] > 100 µM | [8] > 100 µM | [9] > 100 µM | [10] > 100 µM | [11] > 100 µM | [12] > 100 µM | [13] > 100 µM | [14] > 100 µM | [15] > 100 µM | [16] > 100 µM | [17] 76.7 µM | [18] > 100 µM | [19] 55.5 µM

COC1OC(CBr)C(OC(=O)c2ccccc2)C(OS(=O)(=O)c2ccc(C)cc2)C1Br (stereo not given)
inactive: [1] > 100 µM | [2] > 10 µM | [4] > 100 µM | [5] > 10 µM | [6] > 100 µM | [7] > 100 µM | [8] > 100 µM | [9] > 100 µM | [10] > 100 µM | [11] > 100 µM | [12] > 100 µM | [13] > 100 µM | [14] > 100 µM | [15] > 100 µM | [16] > 100 µM | [19] 70.1 µM

CCOC(=O)C1=C(C)N(NC(=O)Nc2ccccc2)C2(N)N(NC(=O)Nc3ccccc3)C(C)=C(C(=O)OCC)C12C(=O)OCC (stereo not given)
inactive: [1] 52.7 µM | [2] 49.3 µM | [3] > 100 µM | [4] 29.5 µM | [5] > 100 µM | [6] 3.09 µM | [7] 29.9 µM | [8] 34.4 µM | [9] 69.7 µM | [10] 33 µM | [11] 38.9 µM | [12] 33.2 µM | [13] 28.2 µM | [14] 54.3 µM | [16] 80.4 µM | [17] 25.9 µM | [18] 35.1 µM | [19] 18.8 µM

CCCCCCCCCCCCCCCCc1c(O)nc(NN)nc1C(=O)OC
inactive: [1] > 50 µM | [2] > 50 µM | [3] > 50 µM | [4] > 50 µM | [5] > 50 µM | [6] > 50 µM | [7] > 50 µM | [8] > 50 µM | [9] > 50 µM | [10] > 50 µM | [11] > 50 µM | [12] > 50 µM | [13] > 50 µM | [14] > 50 µM | [15] > 50 µM | [16] > 50 µM | [17] > 50 µM | [18] > 50 µM | [19] 22.4 µM

Cc1[nH]c2ccccc2c1C1Cc2ccccc2N1C(=O)/C=C\C(=O)O (stereo not given)
inactive: [1] 21.8 µM | [2] 26.2 µM | [3] > 100 µM | [4] > 100 µM | [5] 58.1 µM | [6] 30.9 µM | [7] 47.1 µM | [9] 32.4 µM | [10] 29.5 µM | [11] 23.3 µM | [12] 57.7 µM | [13] 32.1 µM | [14] 66.1 µM | [15] 28.4 µM | [16] 45.8 µM | [17] 24.3 µM | [18] 22.6 µM | [19] 38.2 µM

COc1ccc(S(=O)(=O)Nc2ccccc2C(=O)O)cc1
inactive: [1] > 100 µM | [2] > 100 µM | [3] > 100 µM | [4] > 100 µM | [5] > 100 µM | [6] > 100 µM | [8] > 100 µM | [9] > 100 µM | [10] > 100 µM | [11] > 100 µM | [12] > 100 µM | [13] > 100 µM | [14] > 100 µM | [15] > 100 µM | [16] > 100 µM | [17] 68.1 µM | [18] > 100 µM | [19] 55.8 µM

CN(C)CCC(=O)c1ccccc1
inactive: [1] > 62.8 µM | [2] > 56.2 µM | [3] > 43.7 µM | [4] 46.7 µM | [5] > 58.5 µM | [6] 38.3 µM | [7] 28.4 µM | [8] 41 µM | [9] 16.8 µM | [10] > 56.2 µM | [11] > 100 µM | [12] 32.4 µM | [13] > 71.6 µM | [14] > 47.8 µM | [15] 21.5 µM | [16] > 56.5 µM | [17] > 59.4 µM | [18] > 43 µM | [19] 24.5 µM

CC(=O)OCC(=O)[C@@]12OC(C)(C)O[C@@H]1C[C@H]1[C@@H]3CC(C=O)=C4C=C(OCCCl)CC[C@]4(C)[C@@]3(F)[C@@H](O)C[C@@]12C [FORMOCORTAL]
inactive: [1] 20.7 µM | [2] > 100 µM | [3] 14.3 µM | [4] 19.9 µM | [5] 32.7 µM | [6] 5.93 µM | [7] 10.4 µM | [8] 19 µM | [9] 39 µM | [10] 14.2 µM | [11] 30.2 µM | [12] 20.6 µM | [13] 21.9 µM | [14] 12.5 µM | [15] 5.87 µM | [16] 33.9 µM | [19] 20.9 µM
